Data on nine molecules can be found in publication PMC5045448 (Analytical chemistry, 2016).

Data set [1] deals with mAbs raised by artelinic acid-BSA conjugate. The following applies: cited from earlier work.
The subject of data set [2] is polyclonal antibodies prepared by Song et al. The note with it: cited from earlier work.
The subject of data set [3] is mAbs reported by He et al. The note with it: relative to artemisinin; cited from earlier work.
A further data set deals with mAb 3H7A10. In words: Indirect competitive ELISA. The format is binding, Balb/c mice. The note with it: for Cross-reactivity: (IC50 of artemisinin/IC50 of other compound) × 100; for cross reactivities: artemisinin-specific mAb from position 9 hapten; for competitive inhibition: mAb 3H7A10, up to 20,000 ng mL^−1. Background: In an ELISA, binding on a coated surface is turned into a signal by an enzyme label.

The conditions of data set [4]: dogs, cited from earlier work.
A further data set in a line: in vivo. The following applies: Sprague-Dawley, rat, ip, 10 mg/kg. Set-up: species or system Sprague-Dawley rats.
For data set [5] the following is noted: rats, cited from earlier work.
For data set [6] the following is noted: goat, cited from earlier work.
For data set [7] the following is noted: humans, cited from earlier work.
Data set [8] has as its system mAbs generated by Tanaka et al. The following applies: relative to artemisinin; cited from earlier work.

Like-named read-outs stand apart in the source and are kept apart here. Marks after values point to notes of the source that are not given here. A value given as a limit tells only on which side of the number the result lay.

In the case of `CO[C@H]1O[C@@H]2O[C@@]3(C)CC[C@H]4[C@H](C)CC[C@@H]([C@H]1C)[C@@]24OO3` [Artemether], the “binding by mAbs” value in data set [1] is “approximately the same level”. Also, the “recognition by polyclonal antibodies” value in data set [2] is “equally well”. Further, the Cross-reactivity is listed as 3% in [3] and 0% in the data set on mAb 3H7A10 (mAb 3H7A10). Also, the cross reactivities result in the data set on mAb 3H7A10 is given as “almost no cross reactivities”. The competitive inhibition result with mAb 3H7A10 (icELISA) is listed as “No competitive inhibition”.

Broadly, the AUC(0-t) is the area under the concentration-time curve up to a stated or last time point. Broadly, the Cmax is the highest concentration seen after dosing. For orientation: Tmax means the time at which the peak concentration occurs. Broadly, the half-life is how long it takes for the measured level to halve. Broadly, the AUC is the area under the concentration-time curve, a measure of exposure. On to `C[C@@H]1CC[C@H]2[C@@H](C)C(=O)O[C@@H]3O[C@@]4(C)CC[C@@H]1[C@]32OO4` [Artemisinin], for which the bioavailability entry in data set [4] (oral) is given as “bioavailability appeared low”. Moreover, the “binding by mAbs” value in data set [1] is “approximately the same level”. For the same molecule, in “in vivo”, the AUC(0-t) was 43.7 ng·h/mL, the peak level (Cmax) was 29.1 ± 3 ng/mL, the Tmax is 5 min and the half-life was 22.8 min. For the same molecule, the half-life in data set [5] (in all these studies) is listed as ~ 30 min. The AUC0-24h in [5] (intraperitoneal injection, 10 mg/kg) was 0.132 µM/h. The AUC0-3h in data set [5] (oral administration, 10 mg/kg) was 36.4 ng·h/mL. Moreover, the absorption and bioavailability result in data set [6] (large amount of unabsorbed artemisinin eliminated in feces) was “slow absorption and low bioavailability”. In addition, in data set [7] (another study), the AUC was 754 ng·h/mL and the Cmax was 167 ng/mL. Moreover, in data set [7] (one study), the AUC is reported as 2,611 ng mL^−1 h and the Cmax is 623 ng/mL. Further, in [7], the half-life was ~ 2 h. Also, the Cross-reactivity in the data set on mAb 3H7A10 (mAb 3H7A10) is 100 ± 4.6%. The IC50 with mAb 3H7A10 (icELISA, mAb 3H7A10, means of triplicate ± SD, NI = no inhibition observed with up to 20,000 ng mL^−1 of the analytes) is 2.60 ±0.12 ^b ng/mL.

In the case of `C[C@H]1[C@H](OC(=O)CCC(=O)O)O[C@@H]2O[C@@]3(C)CC[C@H]4[C@H](C)CC[C@@H]1[C@@]24OO3` [Artesunate], in [2], the “recognition by polyclonal antibodies” value is “equally well”. Besides, the Cross-reactivity was 630% in data set [8], 650% in [3] and 0% in the data set on mAb 3H7A10 (mAb 3H7A10). Besides, the cross reactivities entry in the data set on mAb 3H7A10 is reported as “almost no cross reactivities”. In addition, the competitive inhibition entry with mAb 3H7A10 (icELISA) is “No competitive inhibition”.

`CCN(CC)CCCC(C)Nc1ccnc2cc(Cl)ccc12.O=P(O)(O)O.O=P(O)(O)O` (stereo not drawn) [Chloroquine diphosphate salt]: the Cross-reactivity in the data set on mAb 3H7A10 (mAb 3H7A10) was found to be 0%.

As for `C[C@H]1[C@@H](O)O[C@@H]2O[C@@]3(C)CC[C@H]4[C@H](C)CC[C@@H]1[C@@]24OO3` [Dihydroartemisinin], the blood concentrations in data set [4] (oral artemisinin) is below 100 nM. The “time of peak of the metabolite” value in data set [6] (after artemisinin) is listed as 12 h. The “recognition by polyclonal antibodies” value in data set [2] is on record as “equally well”. Besides, the Cross-reactivity is 30% in data set [8], 57% in data set [3] and 0% in the data set on mAb 3H7A10 (mAb 3H7A10). For the same molecule, the cross reactivities entry in the data set on mAb 3H7A10 is listed as “almost no cross reactivities”. For the same molecule, the competitive inhibition result in the data set with mAb 3H7A10 (icELISA) is “No competitive inhibition”.

On to `CCCCN(CCCC)CC(O)c1cc(Cl)cc2c1-c1ccc(Cl)cc1/C2=C/c1ccc(Cl)cc1` (stereo not drawn) [Lumefantrine], for which the Cross-reactivity in the data set on mAb 3H7A10 (mAb 3H7A10) was determined as 0%.

Regarding `COc1cc(NC(C)CCCN)c2ncccc2c1` (stereo not drawn) [Primaquine phosphate], the Cross-reactivity in the data set on mAb 3H7A10 (mAb 3H7A10) is on record as 0%.

Consider `CCc1nc(N)nc(N)c1-c1ccc(Cl)cc1` [Pyrimethamine], for which, in the data set with mAb 3H7A10 (mAb 3H7A10), the Cross-reactivity is on record as 0%.

In the case of `C=C[C@H]1C[N@@]2CC[C@H]1C[C@H]2[C@H](O)c1ccnc2ccc(OC)cc12` [Quinine], the Cross-reactivity in the data set with mAb 3H7A10 (mAb 3H7A10) worked out at 0%.
